Data set [1] concerns MDA-MB-231. Description: Antiproliferative activity against human MDA-MB-231 cells assessed as reduction in cell viability by MTS assay. It counts as functional, cell-based. In general terms: Tetrazolium dyes change colour on reduction, which living cells bring about.
Data set [2] relates to NCI-H211. Description: Antiproliferative activity against human NCI-H211 cells assessed as reduction in cell viability by MTS assay. The class given is functional, cell-based.
In data set [3] the test system is A549. Description: Antitumor activity against human A549 cells xenografted in zebrafish model assessed as reduction in tumor focal area at 2.5 uM relative to control. Details: scale not given: the % may be the effect or the level left. It counts as functional.
Data set [4] relates to PC-9. Description: Antitumor activity against human PC-9 cells xenografted in NSG mouse model assessed as inhibition of tumor growth at 25 mg/kg, ip qd administered every day for 7 consecutive days relative to control. It counts as functional. As to conditions: PC-9, 168 h, time 7 day. A general note: Xenograft models place foreign cells or tissue in a host animal.
Data set [5] has as its system 4T1. Description: Antitumor activity against mouse 4T1 cells overexpressing IDO1 implanted in BALB/c mouse model assessed as inhibition of tumor growth at 25 mg/kg, ip qd administered every day for 8 consecutive days and measured after 14 days relative to control. As to conditions: 4T1, 336 h, time 14 day. The class given is functional.
A short description of data set [6]: animal or person. As to conditions: Mus musculus, Lewis lung carcinoma, 480 h, route ip, time 20 day. The class given is functional.
Data set [7] can be described thus: Antitumor activity against mouse Lewis lung carcinoma cells implanted in C57BL/6J mouse model assessed as inhibition of tumor growth at 5.0 mg/kg, ip administered alternate days for 20 days in presence of 5.0 mg/kg gefitinib relative to control. It counts as functional. Conditions: 480 h, time 20 day.
Data set [8] concerns A549. Description: Antiproliferative activity against human A549 cells assessed as inhibition of cell growth incubated for 24 hrs by MTT assay. It counts as functional, cell-based. Conditions: A549, 24 h.
The test system of data set [9] is A549. Description: Antiproliferative activity against human A549 cells assessed as inhibition of cell growth by MTT assay. The class given is functional, cell-based.
Data set [10] has as its system SGC-7901. Description: Antiproliferative activity against human SGC-7901 cells assessed as inhibition of cell growth by MTT assay. The class given is functional, cell-based.
Data set [11] in a line: Elimination half life in Albino mouse plasma at 1.0 mg/kg, iv. It counts as ADME, organism-based. As to conditions: read-out: beta t1/2 (converted).
Data set [12] has as its system MDA-MB-231. Description: Antiproliferative activity against drug-sensitive human MDA-MB-231 cells assessed as inhibition of cell growth by MTT assay. It counts as functional, cell-based.
Data set [13] relates to BT-474. Description: Antiproliferative activity against drug-sensitive human BT-474 cells assessed as inhibition of cell growth by MTT assay. The class given is functional, cell-based.
For data set [14], the system named is MCF7. Description: Antitumor activity against human MCF7 cells xenografted in mouse assessed as tumor growth inhibition by measuring T/C ratio at 25 mg/kg, iv. The class given is functional.
Data set [15] is described as follows: Plasma clearance in Albino mouse at 1.0 mg/kg, iv. The class given is ADME, organism-based.
Data set [16] can be described thus: AUC(0 to t) in Albino mouse at 1.0 mg/kg, iv. Conditions: in vivo. The class given is ADME, organism-based. Further details: dose 1 mg/kg, route iv.
Data set [17] can be described thus: Antiproliferative activity against human Trastuzumab-resistant BT-474 cells assessed as inhibition of cell growth by MTT assay. It counts as functional, cell-based, Trastuzumab-resistant BT-474 cell.
Data set [18] has as its system MCF7. Description: Antiproliferative activity against drug-sensitive human MCF7 cells assessed as inhibition of cell growth by MTT assay. The class given is functional, cell-based.
Data set [19] concerns SK-BR-3. Description: Antiproliferative activity against drug-sensitive human SK-BR-3 cells assessed as inhibition of cell growth by MTT assay. The class given is functional, cell-based.
Data set [20] in a line: Antiproliferative activity against human Tamoxifen-resistant MCF7 cells assessed as inhibition of cell growth by MTT assay. The class given is functional, cell-based.
Data set [21] relates to B16-F10. Description: Antitumor activity against mouse B16-F10 cells implanted in melanoma mouse model assessed as inhibition of tumor growth at 20 mg/kg, po relative to control. It counts as functional.
For data set [22], the system named is KYSE-450. Description: Antitumor activity against human KYSE-450 cells xenografted in nu/nu nude mouse model assessed as inhibition of tumor growth at 25 mg/kg, ip administered every day for 15 days relative to control. It counts as functional. Conditions: KYSE-450, 360 h, time 15 day.
Data set [23] has as its system NCI-H1650. Description: Antiproliferative activity against drug-sensitive human NCI-H1650 cells assessed as inhibition of cell growth incubated for 48 hrs by MTT assay. It counts as functional, cell-based. Conditions: NCI-H1650, 48 h, pooled result: one value given for 9 cell lines, strains, targets or settings.
Data set [24] deals with LA7. Description: Antiproliferative activity against rat LA7 cells assessed as inhibition of cell growth incubated for 48 hrs by MTT assay. Conditions: LA7, 48 h. The class given is functional, cell-based.
Data set [25] has as its system LA7. Description: Antitumor activity against rat LA7 cells xenografted in mouse assessed as inhibition of tumor growth at 5 mg/kg, po administered daily for 21 days relative to control. It counts as functional. Conditions: LA7, 504 h, time 21 day.
Data set [26] concerns MCF7. Description: Antiproliferative activity against human MCF7 cells assessed as inhibition of cell growth incubated for 48 hrs by MTT assay. As to conditions: MCF7, 48 h. The class given is functional, cell-based.
The subject of data set [27] is A549. Description: Antitumor activity against human A549 cells xenografted in Kunming mouse model assessed as inhibition of tumor growth at 20 mg/kg, iv administered twice daily for 2 weeks relative to control. The class given is functional. Conditions: A549, 336 h.
Data set [28] relates to KYSE-150 cell line. Description: Antiproliferative activity against human KYSE-150 cells assessed as inhibition of cell growth incubated for 72 hrs by MTT assay. The class given is functional, cell-based. Conditions: KYSE-150, 72 h, pooled result: one value given for 5 cell lines, strains, targets or settings.
The test system of data set [29] is SGC-7901. Description: Antiproliferative activity against human SGC-7901 cells assessed as inhibition of cell growth incubated for 72 hrs by MTT assay. It counts as functional, cell-based. As to conditions: SGC-7901, 72 h.

The structures appear in SMILES notation.

`Cc1nnn(C)c1-c1cnc2c3cc4cnn(C)c4cc3n([C@H](c3ccccc3)C3CCOCC3)c2c1`: the IC50 (in general, the concentration that gives 50% inhibition) in data set [1] is 1.58 nM; in data set [2], 1.99 nM.

`COc1cc2ncnc(Nc3ccc(F)c(Cl)c3)c2cc1OCCCN1CCOCC1` [GEFITINIB]: in data set [3], the Activity is 18.95%.

Regarding `C#Cc1cccc(Nc2ncnc3cc(OCCOC)c(OCCOC)cc23)c1` [ERLOTINIB], the inhibition in vivo (in general, how much of the control response was suppressed) at 25 mg/kg was determined as 90% in data set [4] and 36% in data set [5].

Regarding `COc1ccc(-c2cn(CC3(C)C=Cc4cc(N)ccc4O3)nn2)cc1` (centres undefined), the inhibition in vivo at 5 mg/kg in data set [6] came out at 50%; in data set [7], 80%. Also, the IC50 in data set [8] stood at 2 nM.

On to `COc1cc2c(c(OC)c1OC)-c1ccc(OC)c(=O)cc1[C@@H](NC(C)=O)CC2` [COLCHICINE], for which the IC50 in [9] and in data set [10] was 43 nM in each case.

For the molecule `O=C1CCCC2=C1C(c1cn(-c3ccc(Cl)cc3)nn1)C1=C(CCCC1=O)N2`, in data set [11], the half-life is 8.1 h. The IC50 in data set [12], in data set [13], in data set [17], in [18], in data set [19] and in data set [20] was 153 nM throughout. For the same molecule, the T/C in data set [14] was found to be 0.2. For the same molecule, the clearance – broadly, the rate of elimination divided by the concentration – in data set [15] is 15.4 mL/min/kg. In addition, the AUC(0-t) (commonly exposure summed from dosing to a finite time, without extrapolation to infinity) in data set [16] turned out to be 232 ng·h/mL.

For `C/C(=C(/Cl)c1ccccc1)c1nnc(-c2cn(CCCOc3ccc(C(C)(C)C)cc3)nn2)o1`, the inhibition in vivo at 20 mg/kg in [21] was 90%.

As to `FC(F)(F)c1ccc(-n2cc(-c3cccc(Nc4ncnc5cc6c(cc45)OCCOCCOCCO6)c3)nn2)cc1`, the inhibition in vivo at 25 mg/kg in data set [22] is 25%. Further, the IC50 in data set [23] was determined as 3260 nM.

Take `O=C1/C(=C/c2ccccc2F)CN(Cc2cn(Cc3ccc(F)cc3)nn2)C/C1=C\c1ccccc1F`: the results for the IC50 in [24] and in [26] were 3100 nM and 2100 nM, respectively. Also, in data set [25], the inhibition in vivo at 5 mg/kg was 80%.

As for `O=c1[nH]cc(F)c(=O)[nH]1` [FLUOROURACIL], in data set [27], the inhibition in vivo at 20 mg/kg was determined as 64.7%. The IC50 in [28] turned out to be 7730 nM; in data set [29] it was 26300 nM.

For the origin of these results see ChEMBL document CHEMBL5360538, “Recent updates on 1,2,3-triazole-containing hybrids with in vivo therapeutic potential against cancers: A mini-review” (Eur J Med Chem, 2023).
